Experimental data taken from patent US20080063601A1, “Compositions and methods relating to polycystic kidney disease” (priority 2004, published 2008).

Columns and labels:
polycystin-2 [1] = biological target: T1, polycystin-2 (Mus musculus, UniProt O35245); assay: Fluo-4 calcium imaging in murine kidney epithelial cells; assay type: cell-based; details: Pkd1^−/− cells, 100 nM perfused
T1 construct: endogenous in cells; host or cells: Pkd1-/- (PN24) murine kidney proximal tubule epithelial cells
T1 sequence (O35245 1-966): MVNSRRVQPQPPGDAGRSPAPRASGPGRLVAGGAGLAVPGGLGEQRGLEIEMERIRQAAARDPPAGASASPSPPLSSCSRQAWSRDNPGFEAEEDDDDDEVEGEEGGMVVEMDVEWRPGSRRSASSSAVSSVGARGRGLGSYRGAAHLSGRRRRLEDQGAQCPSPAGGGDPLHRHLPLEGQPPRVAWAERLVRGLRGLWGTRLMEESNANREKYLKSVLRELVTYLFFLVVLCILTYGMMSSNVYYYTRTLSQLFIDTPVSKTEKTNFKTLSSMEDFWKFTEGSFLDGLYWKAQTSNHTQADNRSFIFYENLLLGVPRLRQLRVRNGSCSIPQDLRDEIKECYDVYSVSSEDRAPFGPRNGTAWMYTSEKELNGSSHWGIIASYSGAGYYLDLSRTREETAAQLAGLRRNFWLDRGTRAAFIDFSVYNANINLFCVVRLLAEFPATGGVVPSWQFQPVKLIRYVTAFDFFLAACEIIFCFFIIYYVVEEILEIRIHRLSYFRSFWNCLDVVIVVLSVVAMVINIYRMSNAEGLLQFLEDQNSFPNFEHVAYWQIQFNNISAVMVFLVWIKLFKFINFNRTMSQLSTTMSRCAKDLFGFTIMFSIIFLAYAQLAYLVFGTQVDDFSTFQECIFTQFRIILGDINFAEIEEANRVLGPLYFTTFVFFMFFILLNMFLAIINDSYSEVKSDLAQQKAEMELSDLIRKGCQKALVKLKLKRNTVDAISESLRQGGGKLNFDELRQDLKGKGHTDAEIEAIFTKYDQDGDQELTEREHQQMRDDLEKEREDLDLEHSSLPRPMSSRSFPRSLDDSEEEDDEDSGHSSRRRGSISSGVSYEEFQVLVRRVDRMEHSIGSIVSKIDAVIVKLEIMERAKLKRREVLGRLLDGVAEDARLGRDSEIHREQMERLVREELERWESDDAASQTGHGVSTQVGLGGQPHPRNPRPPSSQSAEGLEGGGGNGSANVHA
Description: (§1) Cells were plated on coverslips and loaded with Fluo-4 (Molecular Probes) diluted in DMSO/pluronic for 30 minutes prior to imaging. Cells were perfused with a calcium imaging buffer (HEPES, NaCl, KCl, MgSO4 and CaCl2) ±100 nM triptolide. All cell traces are indicative of individual cellular fluorescence and calcium release. Data is presented as change of fluorescence over baseline control (before triptolide addition).
(§2) Murine kidney epithelial cell lines with differing polycystin-1 or polycystin-2 expression were used to establish a cellular based mechanism for polycystin-2 mediated calcium release in response to triptolide. Because the biochemical purification analysis identified polycystin-2 as a putative triptolide binding protein, Applicant assessed whether the calcium release was dependent upon expression of polycystin-1. Epithelial cells derived from the proximal nephric tubules of Pkd1^−/− mice were first examined to determine if calcium release was observed when 100 nM of triptolide was perfused through the imaging chamber. […] To strengthen the evidence that polycystin-2 was necessary for calcium release elicited by triptolide addition, it was reconstituted by stable expression of Pkd2 into the background of Pkd2^−/− cells, which were assessed for sensitivity to triptolide.

polycystin-2 [2] = assay: as above; assay type: cell-based
Description: as §1, §2

HeLa cells = assay: [3H]-triptolide binding in presence or absence of extracellular calcium
Description: To understand further the nature of triptolide's interaction within the cell, Applicant altered cell culture conditions to examine if [^3H]-triptolide binding would be affected. […] Additionally, it has been established that aberrant calcium signaling can result in cell death (Rizzuto, et al., 2003, Oncogene 22, 8619-8627; Orrenius, et al., 2003, Nat Rev Mol Cell Biol 4, 552-565). Due to triptolide's own link with NFκB and NF-AT and its propensity to induce cell death, Applicant assessed whether triptolide binding could be modulated by free calcium levels. Adherent HeLa cells were cultured in the presence or absence of calcium containing medium for 16 hours before [^3H]-triptolide addition. […] It is also noteworthy that an increase in cell density (not cell number) also increases triptolide binding regardless of calcium levels. Additionally, specific calcium chelation by 10 mM EGTA for one hour in calcium containing medium increased binding by nearly 2 fold.
Labeling studies were performed by the addition of approximately 30 nM [^3H]-triptolide directly into the culture media for one hour at 37° C. […] Total cell lysates were prepared (150 mM NaCl, 50 mM Tris-HCl pH 7.4, 1 mM EDTA, 1% Triton X-100, and Complete™ protease inhibitors (Roche)) and protein was quantitated before measuring the [^3H]-triptolide binding activity via liquid scintillation.

Compound: CC(C)[C@]12O[C@H]1[C@@H]1O[C@]13[C@]1(O[C@H]1C[C@H]1C4=C(CC[C@@]13C)C(=O)OC4)[C@@H]2O [triptolide]
- calcium release (Fluo-4 fluorescence) (polycystin-2 [1]): clear rise in intracellular calcium levels
- calcium release (Fluo-4 fluorescence) (polycystin-2 [2]; Pkd2^−/− cells, 100 nM perfused): no calcium release was detected
- calcium release (Fluo-4 fluorescence) (polycystin-2 [2]; Pkd2 re-expressed (Rex) in Pkd2^−/− background, 100 nM): restored calcium release
- increase of [3H]-triptolide binding on calcium chelation (HeLa cells; 10 mM EGTA 1 h in calcium containing medium): ~2 fold
- increase of [3H]-triptolide binding in absence of extracellular calcium (HeLa cells; calcium-free medium 16 h before [3H]-triptolide): 2-4 fold
